Laboratory results published in PMC7305236, “The atypical chemokine receptor ACKR3/CXCR7 is a broad-spectrum scavenger for opioid peptides” (Nature Communications, 2020).
Like-named read-outs stand apart in the source and are kept apart here.

What was measured:
Test in all cases: Figure S2a opioid peptide screen on chemokine receptors
Assay type in all cases: cell-based
Parameters in all cases: dose or concentration left out as unconfirmed
CCR4 = molecular target: T1, CCR4 (Homo sapiens, UniProt P51679)
T1 construct: expressed in transfected cells
T1 sequence (P51679 1-360): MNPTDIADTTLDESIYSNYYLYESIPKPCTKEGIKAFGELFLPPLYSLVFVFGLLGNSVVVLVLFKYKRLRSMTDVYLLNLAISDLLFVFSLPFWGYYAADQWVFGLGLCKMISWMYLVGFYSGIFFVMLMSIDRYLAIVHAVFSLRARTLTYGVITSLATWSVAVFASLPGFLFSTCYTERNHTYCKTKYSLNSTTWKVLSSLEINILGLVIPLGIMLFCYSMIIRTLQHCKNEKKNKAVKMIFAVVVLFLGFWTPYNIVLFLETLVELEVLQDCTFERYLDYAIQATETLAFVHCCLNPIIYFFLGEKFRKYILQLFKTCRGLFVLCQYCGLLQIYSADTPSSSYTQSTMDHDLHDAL

CCR5 = molecular target: T2, CCR5 (Homo sapiens, UniProt P51681)
T2 construct: expressed in transfected cells

CCR6 = molecular target: T3, CCR6 (Homo sapiens, UniProt P51684)
T3 construct: expressed in transfected cells
T3 sequence (P51684 1-374): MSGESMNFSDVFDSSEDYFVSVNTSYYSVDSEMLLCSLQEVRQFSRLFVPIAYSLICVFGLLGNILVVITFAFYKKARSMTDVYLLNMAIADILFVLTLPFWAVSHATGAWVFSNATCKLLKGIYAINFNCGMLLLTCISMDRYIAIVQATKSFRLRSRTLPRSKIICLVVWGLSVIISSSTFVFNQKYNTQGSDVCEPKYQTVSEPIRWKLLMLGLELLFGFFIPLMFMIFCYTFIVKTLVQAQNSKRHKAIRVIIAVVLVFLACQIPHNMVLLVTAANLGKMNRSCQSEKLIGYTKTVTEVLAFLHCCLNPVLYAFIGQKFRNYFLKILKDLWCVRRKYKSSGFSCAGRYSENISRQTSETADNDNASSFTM

CCR10 = molecular target: T4, CCR10 (Homo sapiens, UniProt P46092)
T4 construct: expressed in transfected cells
T4 sequence (P46092 1-362): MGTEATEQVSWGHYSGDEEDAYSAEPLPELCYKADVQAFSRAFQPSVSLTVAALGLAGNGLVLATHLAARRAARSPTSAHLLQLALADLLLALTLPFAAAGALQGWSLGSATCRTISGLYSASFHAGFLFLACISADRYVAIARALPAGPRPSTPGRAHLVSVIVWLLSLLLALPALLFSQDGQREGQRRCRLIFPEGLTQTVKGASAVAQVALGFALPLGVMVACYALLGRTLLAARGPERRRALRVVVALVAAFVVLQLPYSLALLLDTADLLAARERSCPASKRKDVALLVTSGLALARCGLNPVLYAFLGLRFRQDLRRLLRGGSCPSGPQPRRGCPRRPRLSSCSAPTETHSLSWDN

CXCR1 = molecular target: T5, CXCR1 (Homo sapiens, UniProt P25024)
T5 construct: expressed in transfected cells
T5 sequence (P25024 1-350): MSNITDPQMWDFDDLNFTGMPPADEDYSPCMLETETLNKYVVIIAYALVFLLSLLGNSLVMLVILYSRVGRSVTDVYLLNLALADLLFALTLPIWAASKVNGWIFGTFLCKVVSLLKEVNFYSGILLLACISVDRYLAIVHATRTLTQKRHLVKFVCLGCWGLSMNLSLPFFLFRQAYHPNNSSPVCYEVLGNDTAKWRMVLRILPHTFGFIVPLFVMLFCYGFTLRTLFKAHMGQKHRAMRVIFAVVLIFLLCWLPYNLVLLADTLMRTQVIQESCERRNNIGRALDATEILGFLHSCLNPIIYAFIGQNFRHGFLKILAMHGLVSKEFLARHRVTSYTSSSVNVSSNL

CXCR2 = molecular target: T6, CXCR2 (Homo sapiens, UniProt P25025)
T6 construct: expressed in transfected cells
T6 sequence (P25025 1-360): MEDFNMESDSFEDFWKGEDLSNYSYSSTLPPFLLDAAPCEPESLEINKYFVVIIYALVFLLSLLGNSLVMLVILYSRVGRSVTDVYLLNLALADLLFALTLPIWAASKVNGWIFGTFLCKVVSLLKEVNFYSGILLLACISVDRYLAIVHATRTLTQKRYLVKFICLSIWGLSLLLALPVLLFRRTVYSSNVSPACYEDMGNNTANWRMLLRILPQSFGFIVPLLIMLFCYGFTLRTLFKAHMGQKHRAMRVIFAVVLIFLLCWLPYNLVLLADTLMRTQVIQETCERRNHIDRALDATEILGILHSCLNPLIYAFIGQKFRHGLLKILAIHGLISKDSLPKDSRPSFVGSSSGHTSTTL

XCR1 = molecular target: T7, XCR1 (Homo sapiens, UniProt P46094)
T7 construct: expressed in transfected cells
T7 sequence (P46094 1-333): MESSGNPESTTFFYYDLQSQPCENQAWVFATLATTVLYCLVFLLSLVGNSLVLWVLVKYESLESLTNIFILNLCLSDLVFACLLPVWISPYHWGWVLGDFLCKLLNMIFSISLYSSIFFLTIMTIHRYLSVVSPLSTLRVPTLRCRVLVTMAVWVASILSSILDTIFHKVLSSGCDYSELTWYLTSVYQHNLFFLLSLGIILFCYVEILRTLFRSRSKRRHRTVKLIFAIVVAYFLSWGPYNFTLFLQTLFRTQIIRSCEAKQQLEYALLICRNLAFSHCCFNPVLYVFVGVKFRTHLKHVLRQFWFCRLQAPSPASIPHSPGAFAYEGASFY

[1] = replicate 1, read-out: CCR4 activity, ctrl+ = 100
[2] = replicate 2, read-out: CCR4 activity, ctrl+ = 100
[3] = replicate 1, read-out: CCR5 activity, ctrl+ = 100
[4] = replicate 2, read-out: CCR5 activity, ctrl+ = 100
[5] = replicate 1, read-out: CCR6 activity, ctrl+ = 100
[6] = replicate 2, read-out: CCR6 activity, ctrl+ = 100
[7] = replicate 1, read-out: CCR10 activity, ctrl+ = 100
[8] = replicate 2, read-out: CCR10 activity, ctrl+ = 100
[9] = replicate 1, read-out: CXCR1 activity, ctrl+ = 100
[10] = replicate 2, read-out: CXCR1 activity, ctrl+ = 100
[11] = replicate 1, read-out: CXCR2 activity, ctrl+ = 100
[12] = replicate 2, read-out: CXCR2 activity, ctrl+ = 100
[13] = replicate 1, read-out: XCR1 activity, ctrl+ = 100
[14] = replicate 2, read-out: XCR1 activity, ctrl+ = 100
[15] = replicate 3, read-out: CCR4 activity, ctrl+ = 100
[16] = replicate 3, read-out: CCR5 activity, ctrl+ = 100
[17] = replicate 3, read-out: CCR6 activity, ctrl+ = 100
[18] = replicate 3, read-out: CCR10 activity, ctrl+ = 100
[19] = replicate 3, read-out: CXCR1 activity, ctrl+ = 100
[20] = replicate 3, read-out: CXCR2 activity, ctrl+ = 100
[21] = replicate 3, read-out: XCR1 activity, ctrl+ = 100

T2 sequence (P51681 whole entry): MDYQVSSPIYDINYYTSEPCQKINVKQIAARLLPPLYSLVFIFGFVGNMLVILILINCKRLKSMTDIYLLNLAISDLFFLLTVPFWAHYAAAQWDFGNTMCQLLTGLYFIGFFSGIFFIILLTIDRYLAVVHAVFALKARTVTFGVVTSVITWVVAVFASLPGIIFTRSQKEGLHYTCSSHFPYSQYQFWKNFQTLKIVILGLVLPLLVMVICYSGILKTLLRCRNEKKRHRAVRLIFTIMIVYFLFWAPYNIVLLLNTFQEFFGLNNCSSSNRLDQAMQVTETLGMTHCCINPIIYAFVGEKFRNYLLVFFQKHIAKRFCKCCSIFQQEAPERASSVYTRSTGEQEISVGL

Structure (SMILES)	activation (CCR4; [1])	activation (CCR4; [2])	activation (CCR5; [3])	activation (CCR5; [4])	activation (CCR6; [5])	activation (CCR6; [6])	activation (CCR10; [7])	activation (CCR10; [8])	activation (CXCR1; [9])	activation (CXCR1; [10])	activation (CXCR2; [11])	activation (CXCR2; [12])	activation (XCR1; [13])	activation (XCR1; [14])	activation (CCR4; [15])	activation (CCR5; [16])	activation (CCR6; [17])	activation (CCR10; [18])	activation (CXCR1; [19])	activation (CXCR2; [20])	further results
CC[C@H](C)[C@H](NC(=O)[C@H](CCCNC(=N)N)NC(=O)[C@H](CCCNC(=N)N)NC(=O)[C@H](CC(C)C)NC(=O)[C@H](Cc1ccccc1)NC(=O)CNC(=O)CNC(=O)[C@@H](N)Cc1ccc(O)cc1)C(=O)N[C@@H](CCCNC(=N)N)C(=O)N1CCC[C@H]1C(=O)N[C@@H](CCCCN)C(=O)N[C@@H](CC(C)C)C(=O)N[C@@H](CCCCN)C(=O)O [Dynorphin 1-13]	0.25%	-3.89%	-0.272%	-1.44%	-0.31%	-0.732%	-2.25%	-4.52%	0.218%	-1.21%	-2.31%	-22.4%	-1.76%	-0.309%							
CC(C)C[C@H](NC(=O)[C@H](CCCCN)NC(=O)[C@H](CCCN=C(N)N)NC(=O)[C@H](C)NC(=O)[C@H](CO)NC(=O)[C@H](CCCCN)NC(=O)[C@H](CCCN=C(N)N)NC(=O)[C@H](C)NC(=O)CNC(=O)[C@@H](NC(=O)[C@H](Cc1ccccc1)NC(=O)CNC(=O)CNC(=O)[C@@H](N)Cc1ccccc1)[C@@H](C)O)C(=O)N[C@@H](C)C(=O)N[C@@H](CC(N)=O)C(=O)N[C@@H](CCC(N)=O)C(=O)O [Nociceptin]	-2.47%	-0.825%	1.59%	-0.199%	-0.76%	0.601%	-2.56%	-4.7%	-0.193%	0.511%	-2.08%	-14.7%	1.08%	-2.39%							
CSCC[C@H](NC(=O)[C@H](Cc1ccccc1)NC(=O)CNC(=O)CNC(=O)[C@@H](N)Cc1ccc(O)cc1)C(=O)N[C@@H](CCCNC(=N)N)C(=O)N[C@@H](CCCNC(=N)N)C(=O)N[C@H](C(N)=O)C(C)C [Adrenorphin]	-4.72%	-4.07%	0.166%	-0.467%	-3.87%	1.08%	1.18%	-7.52%	0.451%	0.739%	3.42%	-6.62%	-2.07%	2.59%	2.73%	-0.49%	-1.64%	-2%	-0.427%	-0.394%	activation (XCR1; [21]): 12.1%
C[C@H](NC(=O)CNC(=O)[C@@H](NC(=O)[C@H](Cc1ccccc1)NC(=O)CNC(=O)CNC(=O)[C@@H](N)Cc1ccccc1)[C@@H](C)O)C(=O)N[C@@H](CCCNC(=N)N)C(=O)N[C@@H](CCCCN)C(=O)N[C@@H](CO)C(=O)N[C@@H](C)C(=O)N[C@@H](CCCNC(=N)N)C(=O)N[C@@H](CCCCN)C(N)=O [Nociceptin 1-13]	-0.0637%	0.246%	-0.291%	-0.592%	0.552%	-0.975%	2.26%	-5.16%	0.237%	1.23%	-8.55%	-9.95%	2.91%	3.06%	0.411%	0.907%	-0.351%	3.57%	-0.725%	-4.53%	activation (XCR1; [21]): 4.45%
CC(C)C[C@H](NC(=O)[C@H](Cc1ccccc1)NC(=O)CNC(=O)CNC(=O)[C@@H](N)Cc1ccc(O)cc1)C(=O)N[C@@H](CCCN=C(N)N)C(=O)N[C@@H](CCCN=C(N)N)C(=O)N[C@@H](CCC(N)=O)C(=O)N[C@@H](Cc1ccccc1)C(=O)N[C@@H](CCCCN)C(=O)N[C@H](C(=O)N[C@H](C(=O)N[C@H](C(=O)O)[C@@H](C)O)C(C)C)C(C)C [Dynorphin B]	-1.26%	-2.57%	0.97%	0.0962%	-0.194%	-0.375%	-1.41%	-7.38%	-0.474%	-0.947%	0.415%	-10%	-1.79%	0.791%	5.93%	1.82%	-3.12%	5.94%	0.71%	5.58%	activation (XCR1; [21]): 9.32%
CC[C@H](C)[C@H](NC(=O)[C@H](CCCNC(=N)N)NC(=O)[C@H](CCCNC(=N)N)NC(=O)[C@H](CC(C)C)NC(=O)[C@H](Cc1ccccc1)NC(=O)CNC(=O)CNC(=O)[C@@H](N)Cc1ccc(O)cc1)C(=O)N[C@@H](CCCNC(=N)N)C(=O)N1CCC[C@H]1C(=O)N[C@@H](CCCCN)C(=O)N[C@@H](CC(C)C)C(=O)N[C@@H](CCCCN)C(=O)N[C@@H](Cc1c[nH]c2ccccc12)C(=O)N[C@@H](CC(=O)O)C(=O)N[C@@H](CC(N)=O)C(=O)N[C@@H](CCC(N)=O)C(=O)O [Dynorphin A]	-3.55%	0.0408%	2.19%	-1.33%	-2.27%	-1.32%	2.9%	-7.47%	0.562%	0.211%	-9.63%	-9.59%	4.69%	7.1%	5%	2.35%	-4.07%	4.56%	0.227%	0.355%	activation (XCR1; [21]): 11%
